What all share (assay type): cell-based
Data set [1] deals with Keratinozyten. Kind of data set: Keratinocyte proliferation in keratinocyte basal medium (KBM) without supplements. An excerpt: Die Versuche wurden auch in "keratinocyte basal medium" (KBM), ohne Supplemente), an kultivierten Keratinozyten durchgeführt. Damit konnte festgestellt werden, daß SPP bzw. […] DMS und C2C wirkten auch in diesem Medium toxisch.
Data set [2] is described as follows: Fibroblast proliferation, non-stimulated cells in serum-free medium (DMEM without FKS). The following applies: human, fibroblasts, read-out: Konzentrationen mit ausgeprägter Toxizität an Fibroblasten. An excerpt:
(§1) Das Wachstumsverhalten menschlicher. Fibroblasten in Gegenwart der Testsubstanzen wurde an nicht stimulierten Zellen verfolgt, die in serumfreiem Medium (nach Dulbecco modifiziertes Earle-Medium (DMEM) ohne fetales Kälber-Serum (FKS)) kultiviert wurden.

For data set [3], the system named is Keratinozyten. Kind of data set: Keratinocyte proliferation in KGM, [3H]-thymidine incorporation into DNA. The conditions noted are these: 4-day treatment; for Proliferation von Keratinozyten ([^3H]-Thymidineinbau in die DNA): 1-10 µM. The procedure:
(§2) Die Proliferation von Keratinozyten wurde in Gegenwart von 1-10 µM von Sphingolipid-Derivaten untersucht. Nach 4-tägiger Behandlung mit verschiedenen Sphingolipiden wurde in der logarithmischen Wachstumsphase der Keratinozyten der [^3H]-Thymidineinbau in die DNA gemessen. […] Eine Proliferationshemmung tritt bereits bei einer Konzentration von 1 µM ein, 10 µM SPP reduzierten den Thymidineinbau um ca. 63,1 % (Abb. 1). […] Anhand des MTT-Tests wurde die Zellvitalität in Gegenwart von 1-25 µM SPP untersucht, bis 10 µM wirkten die Substanzen nicht toxisch. […] Dies zeigten mikroskopische Untersuchungen, der MTT-Test als auch durchflußzytometrische Untersuchungen zu Apoptose und Nekrose.
(In general: Uptake of a labelled nucleoside into DNA is a usual measure of proliferation.)

Data set [4] is described as follows: Keratinocyte viability/toxicity: MTT test, microscopy, flow cytometry for apoptosis and necrosis. The conditions noted are these: keratinocytes; tested at 1-25 µM; read-out: Zellvitalität (MTT-Test): nicht toxisch bis. The protocol: as §2
Data set [5] concerns Fibroblasten. Kind of data set: Fibroblast proliferation, non-stimulated cells in serum-free medium (DMEM without FKS).
Text: as §1

Data set [6] has as its system Keratinozyten. Kind of data set: Keratinocyte differentiation, transglutaminase activity. From the text: Nachdem gezeigt worden war, daß SPP die Proliferation von Keratinozyten hemmt, ohne daß damit eine vermehrte Toxizität verbunden ist, wurde der Differenzierungsgrad der Zellen nach Einwirkung der Sphingolipid-Derivate untersucht.

In the case of `CCCCCCCCCCCCC/C=C/[C@@H](O)[C@H](CO)N(C)C` [DMS, Dimethylsphingosin], in data set [1], the “Toxizität an Keratinozyten” value is “toxisch”. Besides, in data set [2], the MCC is at least 5 µM.
Turning to `CCCCCCCCCCCCC/C=C/[C@@H](O)[C@@H](N)COP(=O)(O)O` [SPP, Sphingosin-1-Phosphat], in data set [3], the “Proliferation von Keratinozyten ([^3H]-Thymidineinbau in die DNA)” value (“Proliferation von Keratinozyten” for short) is “stark proliferationshemmend” and the “antiproliferative effect compared with another substance” value was “ebenso potent wie Calcipotriol D3”. In addition, the inhibition at 10 µM in data set [3] (Keratinocyte, 96 h, 10 µM, logarithmic growth phase, read-out: reduzierten den Thymidineinbau um) is about 63.1%. The minimal effective concentration in data set [3] (Keratinocyte, 96 h, read-out: Konzentration, bei der eine Proliferationshemmung bereits eintritt) was 1 µM. Also, the MNTC in data set [4] was at most 10 µM. In data set [1], the “mitogene Effekte an Keratinozyten” value is “keine mitogenen Effekte”. The “Proliferation von Fibroblasten” value in data set [5] (1 µM) is recorded as “wahrnehmbare Proliferationszunahme”. Moreover, the fold induction at 10 µM in data set [5] (Fibroblast, 10 µM, read-out: höchste Aktivität (Proliferation von Fibroblasten)) is about 6.5. For the same compound, the “Proliferation von Fibroblasten” value in data set [5] (concentration-dependent) is “konzentrationsabhängig stark' stimuliert”. Besides, in data set [6], the “Differenzierung von Keratinozyten (Transglutaminase-Aktivität)” value is recorded as “die Differenzierung von Keratinozyten förderten” and the “Zunahme der Differenzierung von Keratinozyten compared with Calcitriol D3” value is listed as “durchaus vergleichbar”.
With `C=C1/C(=C\C=C2/CCC[C@]3(C)[C@@H]([C@H](C)CCCC(C)(C)O)CC[C@@H]23)C[C@@H](O)C[C@@H]1O` [Calcitriol], the “Differenzierung von Keratinozyten (Transglutaminase-Aktivität)” value in data set [6] is “ebenfalls eine Differenzierung fördert”.
Regarding `CCCCCCCCCCCCC/C=C/[C@@H](O)[C@H](CO)NC(C)=O` [C2C, C2-Ceramid], the “Proliferation von Keratinozyten” value in data set [3] is “hemmten zwar ebenso den Thymidineinbau”. Moreover, in data set [1], the “Toxizität an Keratinozyten” value is “toxisch”. Further, the MCC in data set [2] is at least 5 µM. Further, in data set [5] (low concentrations), the “Proliferation von Fibroblasten” value is reported as “sehr geringe proliferationsfördernde Wirkung”.
For the compound `CCCCCCCCCCCCC/C=C/[C@@H](O)[C@@H](N)CO` [SPH, Sphingosin], in data set [3], the “Proliferation von Keratinozyten” value was “wachstumshemmende Wirkung” and the “antiproliferative effect compared with another substance” value was “schwächer ausgeprägt als bei SPP”. Also, in data set [1], the “mitogene Effekte an Keratinozyten” value is given as “keine mitogenen Effekte”. Besides, in data set [5], the “Wirkstärke (Teilungsaktivität bei Fibroblasten) compared with SPP” value is recorded as “niedriger als bei SPP”. Besides, in data set [5] (10 µM), the “toxische Effekte an Fibroblasten” value was “toxische Effekte”. Moreover, the “Proliferation von Fibroblasten” value in data set [5] (concentration-dependent) was “konzentrationsabhängig stark' stimuliert”. In data set [6], the “Differenzierung von Keratinozyten (Transglutaminase-Aktivität)” value is listed as “die Differenzierung von Keratinozyten förderten” and the “Zunahme der Differenzierung von Keratinozyten compared with Calcitriol D3” value is “durchaus vergleichbar”.

(Values after patent EP1064002B9, “USE OF SPHINGOSIN-1-PHOSPHATE, SPHINGOSIN-1-PHOSPHATE DERIVATIVES AND/OR MIXTURES THEREOF FOR THE TREATMENT OF INFLAMMATORY DISEASES OF THE SKIN” (Dermapharm AG, priority 1998, dated 1999).)
